Data taken from EPA's aquatic toxicity sets.

These molecules were tested on Tetrahymena pyriformis (assay: 48 h IGC50 (-log10 mol/L); higher = more toxic).

Compound	48 h IGC50 (-log10 mol/L)
C=CCC#N	1.52
C=CCOC(=O)C(=C)C	2.32
Oc1cccnc1Cl	2.99
CCCCCc1ccccc1	4.79
Nc1cccc(OCc2ccccc2)c1	3.88
CC(C)(O)CCc1ccccc1	2.93
CC(=O)c1ccncc1	2.13
Nc1ccc(Cl)c(Cl)c1	4.37
CCCCCCCC(C)=O	3.66
c1ccoc1	1.35
Oc1ccc(Cl)cc1O	4.06
Cc1ccccn1	1.99
Clc1nc(Cl)c(Cl)c(Cl)c1Cl	4.71
Clc1cc(Cl)c(Cl)cc1Cl	5
Nc1ccc(F)cc1	3.59
COC(=O)c1ccc([N+](=O)[O-])cc1	3.39

The molecules below were run on Pimephales promelas (assay: 96 h LC50 (-log10 mol/L); higher = more toxic).

Compound	96 h LC50 (-log10 mol/L)
C=CCC#N	2.57
C=CCOC(=O)C(=C)C	5.11
Oc1cccnc1Cl	2.32
CCCCCc1ccccc1	4.94
Nc1cccc(OCc2ccccc2)c1	4.34
CC(C)(O)CCc1ccccc1	3.39
CC(=O)c1ccncc1	2.86
Nc1ccc(Cl)c(Cl)c1	4.32
CCCCCCCC(C)=O	3.97
c1ccoc1	3.05
Oc1ccc(Cl)cc1O	4.96
Cc1ccccn1	2.02
Clc1nc(Cl)c(Cl)c(Cl)c1Cl	5.73
Clc1cc(Cl)c(Cl)cc1Cl	5.83
Nc1ccc(F)cc1	3.82
COC(=O)c1ccc([N+](=O)[O-])cc1	3.88
CCCCCCCCOC(=O)C(C)O (stereo not given)	3.93
CCOP(=S)(OCC)SCSP(=S)(OCC)OCC	5.73
CCOC(=O)CCC(=O)OCC	3.1
COc1ccc(O)cc1	3.11
CC1(C)[C@@H]2CC[C@@]1(C)C(=O)C2	3.14
O=C(O)C(Br)Br	3.5
NNC(N)=S	3.64
CC=CC=CC	3.61
OC1COC(O)C(O)C1O (stereo not given)	0.6

Compound	96 h LC50 (-log10 mol/L)
CCCCCCCCCCCCCN	6.48
Cc1c(Cl)cc(C(C)(C)C)c(O)c1C(=O)Nc1ccc([N+](=O)[O-])cc1Cl	7.69
O=S(Cc1ccccc1)Cc1ccccc1	3.46
Cc1ccc(N(C)C)cc1	3.42
Cc1ccc(N=C=O)cc1N=C=O	3.02
Brc1ccccc1	4.45
O=C(Oc1ccccc1)c1ccccc1O	5.28
C#CC(C)(O)CCC(C)C (stereo not given)	3.46
CC(C)Oc1cccc(NC(=O)c2ccccc2C(F)(F)F)c1	4.83
CC1(C)CC(=O)CC(=O)C1	1.09
CCOC(CN(C)CC(OCC)OCC)OCC	2.62
Cc1ccc([N+](=O)[O-])c(N)c1	3.79
COc1ccc(OC)c(C(=O)CBr)c1	6.65
CCOC(=O)CC(S)C(=O)OCC (stereo not given)	3.77
O=Cc1cccc(Oc2ccc(Cl)c(Cl)c2)c1	5.95
Cc1cocn1	1.78
CCN(CC)c1ccc(C=O)c(O)c1	4.56
NC(=O)c1cccc(Br)c1	3.33
COC(=O)C1C(C(=O)OC)C2(Cl)C(Cl)=C(Cl)C1(Cl)C2(Cl)Cl (stereo not given)	5.38
C1=C[C@H]2CC[C@@H]1C2	3.97
Oc1ccccc1Cl	4.02
CC(C)(C)SSC(C)(C)C	5.12
CCCCCC(C)=O	2.94
C#CC1(O)CCCCC1	2.69
